Test results reported in patent US20250108038A1 (priority 2023, published 2025).
Where “and” joins values, the source holds several entries; their conditions need not be identical. Identical values can stand only once. Like-named read-outs stand apart in the source and are kept apart here.

Legend:
OAT1 = target: T1, OAT1 (Homo sapiens, UniProt Q4U2R8); test: Uptake transporter inhibition assay, OAT1 (tenofovir)
T1 sequence (Q4U2R8 1-563): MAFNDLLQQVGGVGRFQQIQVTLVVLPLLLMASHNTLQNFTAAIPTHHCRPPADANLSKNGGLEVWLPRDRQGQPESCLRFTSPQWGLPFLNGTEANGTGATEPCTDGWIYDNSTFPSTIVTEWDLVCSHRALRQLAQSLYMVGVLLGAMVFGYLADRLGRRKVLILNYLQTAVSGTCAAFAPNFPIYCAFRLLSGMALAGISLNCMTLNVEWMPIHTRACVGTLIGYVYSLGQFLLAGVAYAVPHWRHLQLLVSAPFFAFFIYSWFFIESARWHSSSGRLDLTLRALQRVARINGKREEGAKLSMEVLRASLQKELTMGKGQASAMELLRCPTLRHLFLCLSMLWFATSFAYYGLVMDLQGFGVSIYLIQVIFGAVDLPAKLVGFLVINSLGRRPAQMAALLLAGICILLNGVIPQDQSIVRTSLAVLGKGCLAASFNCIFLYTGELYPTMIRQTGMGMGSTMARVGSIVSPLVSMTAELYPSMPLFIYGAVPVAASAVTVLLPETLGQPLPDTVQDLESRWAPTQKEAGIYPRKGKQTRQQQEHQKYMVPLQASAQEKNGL
Method: Uptake experiments were performed using HEK293 cells stably expressing the respective uptake transporters. The assays were conducted according to the actual SOLVO uptake transporter assay protocols (PR-ASY-UPT-General Protocol for Uptake Transporter Inhibition Assays).
Cells were cultured at 37° C. in a humidified atmosphere containing 5% CO2 and were plated onto standard 96-well tissue culture plates.
Before the experiment, the medium was removed, and the cells were washed twice with 100 μL of pre-warmed (37° C.) assay buffer listed in Table 15. The cells were pre-incubated at 37° C. for 30 minutes in assay buffer containing the test article at appropriate concentrations (Table 16), appropriate solvents for solvent controls and the reference inhibitor for reference inhibitor wells. After the pre-incubation step solutions were removed. Uptake experiments were performed at 37° C. in 50 μL of assay buffer containing the probe substrate and the test article or solvent and controls.
After the experiment, cells were washed twice with 100 μL of appropriate cold buffer and lysed with 150 μL scintillation cocktail. Radiolabeled probe substrate transport was determined by liquid scintillation counting.
Uptake of the probe substrate in control cells provided background activity values for all data points.

[1] = Method: Twelve male Wistar Han rats were divided into 4 groups, n=3 per group.
Dose solutions were prepared freshly on the day of study prior to dosing.
The animals were weighed immediately prior to dosing and the dose volume was calculated individually based the obtained body weight and the nominal dose volume. […] The test articles were administered either orally by gavage, or intraperitoneally by injection. The nominal dose volume was 10 mL/kg for both compounds and both routes.
Cage side observation was performed before and after dosing as well as at each scheduled sample collection. The observation included appearance, posture, behavior, morbidity and mortality. Abnormal findings, if any, were recorded in the study notebook and communicated with study director, veterinarian, and Supernus if necessary.
Approximately 100 μL blood was collected at each scheduled time point from jugular veins. The actual sample collection time was within 1 min. of the nominal time for collections prior to or at 1 hour, and within 5% of the nominal time for collections post 1 hour.
The blood samples were placed in pre-labeled micro-centrifuge tubes containing K2EDTA as anticoagulant and kept on ice, and then were processed to plasma within 30 minutes of collection by centrifugation at 4° C., 3000 g for 5 minutes, and then stored at −70±10° C. until analysis by LC-MS/MS.
Plasma concentrations below the LLOQ prior to Tmax were set to zero, and those after Tmax were excluded from PK calculation. The nominal dose and the nominal sample collection time were used for the calculation. The values of plasma concentrations and PK parameters are reported to three significant figures. The average values of each treatment group are presented as mean±SD.

[2] = Metabolic stability in human intestinal homogenate; assay type: in vitro ADME
Method: The intestinal homogenate mixture solution was added to 96-well plates ([…]) in duplicate. […] Reaction was initiated by adding cofactor solution at 10 μL/well.
The intrinsic clearances were calculated using the following equations: […]

[3] = 10.00 μM nominal, 6.60 μM NSB corrected
[4] = 100.00 μM nominal, 77.00 μM NSB corrected
[5] = single IP Compound I-19 4.061 mg/kg, male Wistar Han rats, individual animals
[6] = single IP Compound I-19 4.061 mg/kg, male Wistar Han rats, mean
[7] = single PO Compound I-19 4.061 mg/kg, male Wistar Han rats, individual animals
[8] = single PO Compound I-19 4.061 mg/kg, male Wistar Han rats, mean
[9] = 1 μM, 0.5 mg/mL homogenate, 1 mM NADPH
[10] = 1 μM, NCF60 (60 min, no cofactors)

## Clc1ccc(C2(OCC3OCCO3)c3ccccc3C3=NCCN32)cc1 (centres unmarked) [Compound I-19]
OAT1; [3]
  Relative inhibition: 11%
  Relative transporter specific accumulation: 89.39 ± 1.16 % of control
  Transporter specific accumulation: 5,462.33 ± 30.98 cpm
OAT1; [4]
  Relative inhibition: 33%
  Relative transporter specific accumulation: 66.61 ± 1.15 % of control
  Transporter specific accumulation: 4,070.33 ± 51.74 cpm
OAT1; OAT1, HEK293 cells, tenofovir (5 μM), NIO: no inhibition observed
  Maximum % inhibition: 33%
[1]; 0.500 h, single IP Compound I-19 4.061 mg/kg, male Wistar Han rats, individual animals
  plasma concentration of Compound I-19: 150 ng/mL and 193 ng/mL and 136 ng/mL
[1]; 0.500 h, single IP Compound I-19 4.061 mg/kg, male Wistar Han rats, mean
  plasma concentration of Compound I-19: 160 ng/mL
[1]; 2.00 h, single IP Compound I-19 4.061 mg/kg, male Wistar Han rats, individual animals
  plasma concentration of Compound I-19: 126 ng/mL and 144 ng/mL and 188 ng/mL
[1]; 2.00 h, single IP Compound I-19 4.061 mg/kg, male Wistar Han rats, mean
  plasma concentration of Compound I-19: 153 ng/mL
[1]; 2.00 h, single PO Compound I-19 4.061 mg/kg, male Wistar Han rats, individual animals
  plasma concentration of Compound I-19: BQL
[1]; 4.00 h, single IP Compound I-19 4.061 mg/kg, male Wistar Han rats, individual animals
  plasma concentration of Compound I-19: 73.3 ng/mL and 69.9 ng/mL and 91.6 ng/mL
[1]; 4.00 h, single IP Compound I-19 4.061 mg/kg, male Wistar Han rats, mean
  plasma concentration of Compound I-19: 78.3 ng/mL
[1]; 4.00 h, single PO Compound I-19 4.061 mg/kg, male Wistar Han rats, individual animals
  plasma concentration of Compound I-19: BQL
[1]; 8.00 h, single IP Compound I-19 4.061 mg/kg, male Wistar Han rats, individual animals
  plasma concentration of Compound I-19: 6.11 ng/mL and 10.1 ng/mL and 10.7 ng/mL
[1]; 8.00 h, single IP Compound I-19 4.061 mg/kg, male Wistar Han rats, mean
  plasma concentration of Compound I-19: 8.97 ng/mL
[1]; 8.00 h, single PO Compound I-19 4.061 mg/kg, male Wistar Han rats, individual animals
  plasma concentration of Compound I-19: BQL
[1]; 24.0 h, single IP Compound I-19 4.061 mg/kg, male Wistar Han rats, individual animals
  plasma concentration of Compound I-19: BQL
[1]; 24.0 h, single PO Compound I-19 4.061 mg/kg, male Wistar Han rats, individual animals
  plasma concentration of Compound I-19: BQL
[1]; […] h, single IP Compound I-19 4.061 mg/kg, male Wistar Han rats, mean
  plasma concentration of Compound I-19: 168 ng/mL
[1]; male Wistar Han rats, PO and IP, administered dosages
  Clinical observation (tolerability): well tolerated
[1]; rat, in vivo, ip
  T1/2 of the administered compound: 1.43 ± 0.107 h
[1]; [5]
  AUC0-inf of Compound I-19: 584 ng·h/mL and 660 ng·h/mL and 771 ng·h/mL
  AUC0-last of Compound I-19: 572 ng·h/mL and 637 ng·h/mL and 749 ng·h/mL
  Cmax of Compound I-19: 158 ng/mL and 193 ng/mL and 192 ng/mL
  MRT0-inf of Compound I-19: 2.63 h and 2.73 h and 2.80 h
  MRT0-last of Compound I-19: 2.48 h and 2.47 h and 2.59 h
  T1/2 of Compound I-19: 1.33 h and 1.54 h and 1.43 h
  Tlast of Compound I-19: 8.00 h
  Tmax of Compound I-19: 0.500 h
[1]; [6]
  AUC0-inf of Compound I-19: 672 ng·h/mL
  AUC0-last of Compound I-19: 653 ng·h/mL
  Cmax of Compound I-19: 181 ng/mL
  MRT0-inf of Compound I-19: 2.72 h
  MRT0-last of Compound I-19: 2.51 h
  T1/2 of Compound I-19: 1.43 h
  Tlast of Compound I-19: 8.00 h
  Tmax of Compound I-19: 0.583 h
[1]; [7]
  AUC0-last of Compound I-19: 0.510 ng·h/mL and 0.285 ng·h/mL
  Cmax of Compound I-19: 1.02 ng/mL and 1.14 ng/mL
  MRT0-last of Compound I-19: 1.00 h and 0.500 h
  Tlast of Compound I-19: 1.00 h and 0.500 h
  Tmax of Compound I-19: 0.500 h
[1]; [8]
  AUC0-last of Compound I-19: 0.398 ng·h/mL
  Cmax of Compound I-19: 1.08 ng/mL
  MRT0-last of Compound I-19: 0.750 h
  Tlast of Compound I-19: 0.750 h
[2]; 0 min
  Compound A formed (Aa/Ai): 0.76
[2]; 1 μM, 0 min
  % Remaining: 100%
  Aa/Ai Mean (n = 2): 0.90
[2]; [9]
  CLint(HIH): 20.0 µL/min/mg
  T1/2: 1.16 h
[2]; 1 μM, 5 min
  % Remaining: 85.6%
  Aa/Ai Mean (n = 2): 0.77
[2]; 1 μM, 10 min
  % Remaining: 82.8%
  Aa/Ai Mean (n = 2): 0.75
[2]; 1 μM, 20 min
  % Remaining: 68.4%
  Aa/Ai Mean (n = 2): 0.62
[2]; 1 μM, 30 min
  % Remaining: 65.2%
  Aa/Ai Mean (n = 2): 0.59
[2]; 1 μM, 60 min
  % Remaining: 52.6%
  Aa/Ai Mean (n = 2): 0.47
[2]; [10]
  % Remaining: 55.5%
  Aa/Ai Mean (n = 2): 0.50
[2]; 5 min
  Compound A formed (Aa/Ai): 0.67
[2]; 10 min
  Compound A formed (Aa/Ai): 0.67
[2]; 20 min
  Compound A formed (Aa/Ai): 0.65
[2]; 30 min
  Compound A formed (Aa/Ai): 0.61
[2]; 60 min
  Compound A formed (Aa/Ai): 0.53
[2]; NCF60 (60 min, no cofactors)
  Compound A formed (Aa/Ai): 0.58
